The results in this text go back to patent publication US7560591B2, “Benzamidine derivatives having anti-inflammatory and immunosuppressive activity” (Rotta Research Laboratorium S.p.A., priority 2001, dated 2009).

Assay [1] relates to colitis induced by TNBS in rats. Put plainly: Colitis induced by TNBS in rats. The note with it: for Weight of the colon: 48 hours after TNBS; for Weight of the colon / Myeloperoxidase activity / iNOS activity / Macroscopic damage (MDS): mean ± SD; for Myeloperoxidase activity / iNOS activity: colon tissue; for Macroscopic damage (MDS): score 0-10. Format: in vivo, rat. The source says: The combined capability of some of the compounds of the invention to inhibit both iNOS and the synthesis of TNFα has led to their activity being checked in an experimental model of colitis caused by a chemical hapten, trinitrobenzene-sulphonic acid (TNBS), which can bind to the tissue proteins and stimulate cell-mediated immunity. The intrarectal administration of TNBS in association with ethanol causes acute inflammation characterised by extensive ulceration and necrosis.
A distal colitis was therefore induced in the rat by intrarectal instillation of TNBS (40 mg/kg) dissolved in 50% ethanol (0.5 ml/rat). The drugs were administered orally twice a day on days −2; −1; 0; +1 and the animals were killed 48 hours after the administration of TNBS.
The parameters examined were: total weight of the colon (g), macroscopic tissue damage “score”, measurement of the tissue myeloperoxidase (MPO) activity, which is a marker of the infiltration of the neutrophiles, and measurement of the iNOS activity (pmoles/g tissue/min.).
The macroscopic score (MDS) was taken on about 10 cm of colon in accordance with the following arbitrary scale:
The tissue MPO measurement was performed according to Velgara et al., JPET 1994. The measurement of the tissue nitrites was performed by applying the method described above for the chondrocytes to the supernatant fluid of the tissue homogenate.
Compound I-4, administered in doses of 5, 10 and 20 mg/kg, and compound I-11 were examined, by administering them orally, in comparison with sulphasalazine (250 mg/kg) and 5-aminosalicylic acid (5-ASA) (100 mg/kg), 2 drugs which are widely used in the treatment of ulcerative colitis.

Assay [2] deals with neutral proteases (metalloproteases). In words: Inhibition of neutral proteases (metalloproteases) in supernatant of IL-1β-stimulated rabbit joint chondrocytes, azocoll substrate. Format: biochemical. The conditions noted are these: IL-1β 1 ng/ml, 48 hours, APMA-activated supernatant, read-out: MP (metalloproteases) IC50. As to the method:
(§1) a) The activity in inhibiting the formation of NO, measured as NO2^− (nitrites), PGE2, and neutral protease, was investigated in vitro on culture broths of rabbit joint chondrocytes stimulated by cytokine IL-1β (1 ng/ml) for 48 hours. For the preparation of the chondrocytes, the method described by Berenbaum et al [FEBS Letters 340, 51-55 (1994)] was followed. Briefly, fragments of cartilage removed under sterile conditions from the heads of rabbit shoulder, hip and knee joints were chopped finely and digested at 37° C. by hyaluronidase, trypsin and collagenase solutions, giving rise, after filtration on sterile gauze and centrifuging at 600×g and suitable dilution with 10% DMEM-FCS, to a concentration of approximately 1×10^5 cells per well. The cells were kept in these conditions until confluence (about 15 days), the broth being changed every 3 days. At this point, the products under test, dissolved in the medium, were added to each test sample and, after 20 minutes, 350 μl IL-1β was added in order to have a final concentration of 1 ng/ml. The duration of the stimulation was 48 hours at 37° C. (incubation air-CO2 7%). Measurement of the nitrites, as described by Green et al. [Anal. Biochem. 126, 131-138 (1982)], and of the PGE2s by RIA measurement, was then performed on the cell supernatant fluid. The measurement of the neutral proteases was performed in the cell supernatant fluid containing the p-aminophenyl mercury acetate (APMA) activator with the use of azocoll as the substrate and with incubation at 37° C. for 17 h as described by Chavira et al. [Anal. Biochem. 136, 446-450 (1984)]. In order to evaluate the direct inhibitory effect of the compounds under test on the hydrolytic activity of the cell supernatant fluid, they were added to the supernatant fluid containing the proteases induced by IL-1β and already activated by AMPA.
(§2) The results obtained are shown in Table 3, in which the IC50, that is, the concentration (micromolar) of antagonist which can inhibit the formation of nitrites, PGE2s, and neutral proteases, respectively, by 50% relative to the control group, that is, to the cells stimulated with IL-1β but without the addition of antagonists, is given for some of the compounds of the invention already given by way of example in Table 2.

A further assay has as its system formation of PGE2. In words: Inhibition of PGE2 formation in rabbit joint chondrocytes stimulated by IL-1β (RIA). Format: cell-based. The note with it: IL-1β 1 ng/ml, 48 hours. As to the method: as §1, §2
Assay [3] relates to formation of NO, measured as NO2− (nitrites). Put plainly: Inhibition of NO (nitrite) formation in rabbit joint chondrocytes stimulated by IL-1β. It counts as cell-based. The conditions noted are these: IL-1β 1 ng/ml, 48 hours, NO determined as nitrites. As for the experimental part: as §1, §2
In assay [4] the test system is extravasation in the ears of mice. Put plainly: Extravasation (Evans Blu) induced by phlogogenic agents in the ears of mice. Format: in vivo. As to the method: b) Some of the compounds of the invention, such as compounds I-4, I-11 and I-31, were evaluated in vivo in a series of experimental extravasation models in which 5 μl of the preselected phlogogenic agent dissolved in physiological solution was injected intradermally into the ears of mice as described by Erdo et al., with slight modifications [Agents and Actions 39, 137-142 (1993)].
The products under test were administered orally 1 hour before the challenge and, 30 minutes before the challenge, the dye Evans Blu was injected intravenously in a dose of 100 mg/kg. The animals were killed at a time predetermined according to the test, 30 min.—2 hours after the challenge. The extravasation was evaluated by determining the quantity of dye present in the ear, extracted after homogenisation of the tissue in 2 ml of formamide and incubation at 50° C. for 2 hours. After centrifuging, the amount of dye was determined by measuring the absorption at 620 nm. The maximum % effect (% MPE) was calculated by the following formula:
[formula] in which EV is the mean absorption observed in the group of animals treated solely with the phlogogenic agent, ED is the group treated with the phlogogenic agent and the drug, and EB is the base value, that is, the value for the animals injected with physiological solution alone.
The phlogogenic agents used were:
Arachidonic acid (dissolved in EtOH); (1 mg/mouse; killed+30 min); histamine (3 nmoli/mouse; killed+30 min); PAF (30 pmoli/mouse; killed+60 min); Zymosan (10 μg/mouse; killed+120 min); bradykinin (0.6 nmoli/mouse; killed+30 min).

Setting [5] is: OS, mouse ear, PAF, read-out: ED50, extravasation induced by PAF.
[6] abbreviates: 250 mg/kg, non-statistically significant.

Where two headings read alike, the source gives them in different places. Some results are limits rather than exact numbers.

Consider `Nc1ccc(O)c(C(=O)O)c1` [Compound 5-ASA, 5-aminosalicylic acid, reference compound], for which the “activity on all of the parameters (in words)” value in assay [1] (100 mg/kg) is “inactive”. Also, in assay [1] (100 mg/kg orally twice a day), the “Weight of the colon” value was found to be 2.4 ± 0.4 g, the Myeloperoxidase activity was 7.9 ± 2.3 UMPO/g/min, the iNOS activity stood at 167.3 ± 106.5 pmol/g/min and the “Macroscopic damage (MDS)” value was 6.9 ± 1.1.
Consider `CNC(=S)Nc1ccc(NC(C)=N)cc1` [Compound I-1], for which the IC50 (usually the point on the concentration scale where inhibition reaches its midpoint) in assay [2] came to 30 µM.
`CCCCNC(=S)Nc1ccc(NC(C)=N)cc1` [Compound I-3]: the half-maximal inhibitory concentration (IC50) in the assay with formation of PGE2 turned out to be 250 µM; in assay [3], 190 µM; in assay [2], 13.3 µM.
For `CCCCCCNC(=S)Nc1ccc(NC(C)=N)cc1` [Compound I-5] the same measures were 10 µM, 10 µM and 3.3 µM.
For the molecule `CC(=N)Nc1ccc(NC(=S)NCCC(C)C)cc1` [Compound I-7], the values for the IC50 (in the assay with formation of PGE2; in assay [3]; in assay [2]) were 6.6 µM, 3.3 µM and 13.3 µM, respectively.
In the assay on formation of PGE2, `CC(=N)Nc1ccc(NC(=S)NC2CCCCC2)cc1` [Compound I-11] returned an IC50 of 16.6 µM. Besides, in assay [3], the IC50 came to 110 µM. In assay [1] (20 mg/kg), the “activity in TNBS colitis (in words)” value was “active”. For the same molecule, in assay [1] (20 mg/kg orally twice a day), the “Weight of the colon” value was 2.2 ± 0.3 g, the Myeloperoxidase activity was 6.5 ± 1.8 UMPO/g/min, the iNOS activity came out at 90.6 ± 45.6 pmol/g/min and the “Macroscopic damage (MDS)” value is 4.3 ± 0.9(*). Moreover, the concentration for half-maximal inhibition (IC50) in assay [2] worked out at 30 µM.
For `CCC(=N)Nc1ccc(NC(=S)NC2CCCCC2)cc1` [Compound I-12], the IC50 was 13.3 µM with formation of PGE2 and 100 µM in assay [2].
Regarding `CC(=N)Nc1ccc(NC(=S)Nc2ccccc2)cc1` [Compound I-13], the IC50 with formation of PGE2 is 10 µM; in assay [3], 100 µM; in assay [2] it was 6.6 µM.
The like results for `CC(=N)Nc1ccc(NC(=S)NCCc2ccccc2)cc1` [Compound I-14] were, in that order, 33 µM, 100 µM and 6.6 µM.
The like results for `CC(=N)Nc1ccc(NC(=S)NCCCc2ccccc2)cc1` [Compound I-15] were, in that order, 16.6 µM, 33 µM and 6.6 µM.
For `CC(=N)Nc1ccc(NC(=S)NCCc2ccc(F)cc2)cc1` [Compound I-16] the same measures were 26.6 µM, 13.3 µM and 6.6 µM.
`CC(=N)Nc1ccc(NC(=S)NCCc2ccc(Cl)cc2)cc1` [Compound I-17]: the IC50 (with formation of PGE2; in assay [3]; in assay [2]) was 10 µM throughout.
Take `CC(=N)Nc1ccc(NC(=S)NCCc2c(F)cccc2F)cc1` [Compound I-18]: the IC50 (with formation of PGE2; in assay [2]) was 6.6 µM throughout.
For `CC(=N)Nc1ccc(NC(=S)NCc2ccccn2)cc1` [Compound I-19], the IC50 in assay [2] was 13.3 µM.
As to `CC(=N)Nc1ccc(NC(=S)NCCc2ccccn2)cc1` [Compound I-20], the IC50 was 16.6 µM with formation of PGE2, 16.6 µM in assay [3] and 6.6 µM in assay [2].
Consider `CC(=N)Nc1ccc(NC(=S)Nc2ncc(C)s2)cc1` [Compound I-21], for which the IC50 in assay [3] worked out at 66.6 µM.
The same measure, in the same setting: in the case of `CCCCCC(=O)Nc1ccc(NC(C)=N)cc1` [Compound I-23] it was 100 µM.
Turning to `CC(=N)Nc1ccc(NC(=O)C2CCCCC2)cc1` [Compound I-24], the IC50 (in the assay with formation of PGE2; in assay [3]) was 33.3 µM throughout.
In turn, `CC(=N)Nc1ccc(NC(=O)C23CC4CC(CC(C4)C2)C3)cc1` [Compound I-25] registered an IC50 with formation of PGE2 of 16.6 µM.
`CC(=N)Nc1ccc(NC(=O)Cc2c[nH]c3ccccc23)cc1` [Compound I-27]: the IC50 in assay [3] is 10 µM.
In the assay with formation of PGE2, `CC(=N)Nc1ccc(NC(=O)c2cc3ccccc3n2C)cc1` [Compound I-28] had an IC50 of 100 µM.
For `CC(=N)Nc1ccc(NC(=O)NC2CCCCC2)cc1` [Compound I-29], the IC50 with formation of PGE2 was found to be 6.6 µM; in assay [3], 25 µM; in assay [2] it was 25 µM.
Regarding `N=C(N)Nc1ccc(NC(=S)NC2CCCCC2)cc1` [Compound I-30, 1-guanidinophenyl-4-cyclohexyl Thiourea], the IC50 was 10 µM with formation of PGE2, 6.6 µM in assay [3] and 13.3 µM in assay [2].
For the molecule `N=C(Nc1ccc(NC(=S)NC2CCCCC2)cc1)N[N+](=O)[O-]` [Compound I-31], in assay [4] (OS, mouse ear, PAF), the “ED50, extravasation induced by PAF” value was 10.8 mg/kg. For the same molecule, the “ED50, extravasation induced by Zymosan” value in assay [4] (OS, mouse ear, Zymosan) amounted to 10.5 mg/kg. Also, the “ED50, extravasation induced by AA (arachidonic acid)” value in assay [4] (OS, mouse ear, arachidonic acid) stood at 30.5 mg/kg. Besides, the half-maximal inhibitory concentration (IC50) with formation of PGE2 amounted to 30 µM; in assay [3] it was 46.6 µM; in assay [2], 6.6 µM.
For the molecule `CC(=N)Nc1cccc(NC(=S)NC2CCCCC2)c1` [Compound I-32], in the assay with formation of PGE2, the IC50 worked out at 300 µM.
Regarding `CS(=O)(=O)Nc1ccc([N+](=O)[O-])cc1Oc1ccccc1` [Nimesulide, reference compound], the ED50 (commonly the midpoint of the dose-response relation) in assay [4] (setting [5]) was > 40 mg/kg; in assay [4] (OS, mouse ear, arachidonic acid, read-out: ED50, extravasation induced by AA (arachidonic acid)), 41 mg/kg. Moreover, the “times less active than Compound I-4” value in assay [4] (antagonising AA) is 2 times.
Regarding `CN1C(C(=O)Nc2ccccn2)=C(O)c2ccccc2S1(=O)=O` [Piroxicam, reference compound], the ED50 in assay [4] (setting [5]) worked out at 21.2 mg/kg; in assay [4] (OS, mouse ear, Zymosan, read-out: ED50, extravasation induced by Zymosan), 6.1 mg/kg.
In the case of `O=C(O)c1cc(/N=N/c2ccc(S(=O)(=O)Nc3ccccn3)cc2)ccc1O` [Sulphasalazine, sulphasalazine, reference compound], in assay [1] (250 mg/kg orally twice a day), the “Weight of the colon” value was determined as 2.5 ± 0.3 g, the Myeloperoxidase activity is listed as 7.5 ± 5.5 UMPO/g/min, the iNOS activity was found to be 100.8 ± 86.8 pmol/g/min and the “Macroscopic damage (MDS)” value is on record as 6.0 ± 2.9. Besides, in assay [1] (setting [6]), the “effect on iNOS activity” value was “about 50%” and the “effect on macroscopic damage” value is “about 20%”.
